Values joined by “and” are separate entries in the source; they are usually repeats but may differ in a detail not shown here. Equal values may be shown once.

The target in test [1] is T1, Human S1P1 receptor (Homo sapiens, UniProt P21453). The experiment in a line: Agonist activity at an S1P1 receptor (reporter assay, EDG1-bla/U2OS cells). It counts as cell-based. On the set-up: host or cells: U2OS (EDG1-bla/U2OS). To be noted: S1P maximum response = 100%. As for the experimental part:
Human S1P1 receptor gene recombinant EDG1-bla/U2OS cells (Life Technologies Japan Ltd.) were plated in a 96-well half-sized clear bottom black plate at a density of 10000 cells/32 μL/well, and then the plate was incubated at 37° C. in a 5% CO2 incubator for 48 hours. A culture medium containing each test compound prepared as a 5× concentrate was added at 8 μL/well, and the plate was incubated at 37° C. in a 5% CO2 incubator for 5 hours. The substrate (LiveBLAzer™-FRET B/G substrate (CCF4-AM), Life Technologies Japan Ltd.) prepared as a 6× concentrate was added at 8 μL into each well, and the plate was incubated at room temperature for 2 hours in the dark. The fluorescence intensity of each well was detected using a bottom-reading fluorescence microplate reader (EnVision: ParkinElmer) at one excitation wavelength and 2 wavelengths for fluorescence emission (Ex409 nm, Em460 nm, Em530 nm). The intensity ratio of fluorescence at 460 nm/530 nm was calculated for each well. The maximum response ratio confirmed from the dose response of SIP was expressed as 100%. The concentration of a test compound required to stimulate 50% of its maximal activation was computed as EC50 (nM).

The target in test [2] is T2, Human S1P4 receptor (Homo sapiens, UniProt O95977).
T2 sequence (O95977 1-384): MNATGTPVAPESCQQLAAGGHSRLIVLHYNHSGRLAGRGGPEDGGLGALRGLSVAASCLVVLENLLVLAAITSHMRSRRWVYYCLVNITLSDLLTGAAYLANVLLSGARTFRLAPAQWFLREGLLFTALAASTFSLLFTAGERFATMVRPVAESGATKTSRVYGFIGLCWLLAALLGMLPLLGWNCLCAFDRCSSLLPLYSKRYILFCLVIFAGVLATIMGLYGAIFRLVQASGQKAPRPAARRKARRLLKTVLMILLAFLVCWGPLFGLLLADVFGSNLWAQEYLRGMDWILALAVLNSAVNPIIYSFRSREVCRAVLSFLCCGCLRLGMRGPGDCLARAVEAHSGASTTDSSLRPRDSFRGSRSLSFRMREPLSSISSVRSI
The test can be described thus: Agonist activity at an S1P4 receptor (calcium influx). It is filed as cell-based. To be noted: at 1000 nM; read-out: activity at S1P4 receptor (elevation of intracellular calcium). As for the experimental part:
By using Human S1P4 receptor expressing cells (Multispan Inc. CG1052-1), the elevation of intracellular calcium concentration via agonist activity by the addition of 1000 nM was measured by Fret method (fluorescence resonance energy transfer).
(In general: Calcium flux is commonly read through the fluorescence of an indicator in the cells.)

The target in test [3] is T1, Human S1P1 receptor. The experiment in a line: Agonist activity at an S1P1 receptor ([35S]-GTPγS exchange reaction, membrane fractions). It is filed as biochemical. As to conditions: read-out: EC50, agonist activity at S1P1 receptor (GTP exchange reaction). As for the experimental part: (§1) By using membrane fractions prepared from a human S1P1 receptor expressing cells (Multispan Ltd.), the agonist activity of each test compound was measured by [^35S]-GTPγS exchange reaction in accordance with a standard procedure (Methods in Molecular Biology, Vol. 552, p 143-151 (2009)), and EC50 (nM) of each test compound was computed.

Test [4] addresses Human S1P3 receptor (Homo sapiens, UniProt Q99500). The test can be described thus: Agonist activity at an S1P3 receptor ([35S]-GTPγS exchange reaction at 1000 nM). It is filed as biochemical. As to conditions: read-out: percent of the maximal agonist activity at S1P3 receptor. How it is done: as §1
By using membrane fractions prepared from Human S1P3 receptor expressing cells (Multispan Inc.), the agonist activity of the compound in the present invention was measured by a [^35S]-GTPγS exchange reaction at 1000 nM by the similar method of the Experimental Example 2.

Sequence of Human S1P3 receptor (Q99500 whole entry): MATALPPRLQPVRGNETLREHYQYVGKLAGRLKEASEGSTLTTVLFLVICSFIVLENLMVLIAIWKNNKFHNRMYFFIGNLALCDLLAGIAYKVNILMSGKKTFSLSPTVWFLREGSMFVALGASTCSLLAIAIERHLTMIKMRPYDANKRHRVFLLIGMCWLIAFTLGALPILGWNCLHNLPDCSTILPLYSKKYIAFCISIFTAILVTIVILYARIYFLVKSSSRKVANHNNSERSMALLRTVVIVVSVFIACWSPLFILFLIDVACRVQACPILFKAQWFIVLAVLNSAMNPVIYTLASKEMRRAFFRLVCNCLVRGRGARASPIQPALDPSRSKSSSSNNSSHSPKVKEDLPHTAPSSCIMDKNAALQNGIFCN
T1 sequence (P21453 whole entry): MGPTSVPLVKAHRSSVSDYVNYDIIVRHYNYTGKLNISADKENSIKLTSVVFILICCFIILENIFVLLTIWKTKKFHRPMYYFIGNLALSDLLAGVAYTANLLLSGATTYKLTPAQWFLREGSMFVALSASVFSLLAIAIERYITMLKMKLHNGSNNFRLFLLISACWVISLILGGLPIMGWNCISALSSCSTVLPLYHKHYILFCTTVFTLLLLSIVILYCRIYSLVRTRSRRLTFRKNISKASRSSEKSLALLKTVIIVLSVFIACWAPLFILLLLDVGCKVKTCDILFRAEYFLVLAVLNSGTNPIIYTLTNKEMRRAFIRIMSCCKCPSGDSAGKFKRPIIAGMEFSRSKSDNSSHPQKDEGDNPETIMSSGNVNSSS

Take `CCCCCCc1ccc(-c2cnc(-c3ccc(CN4CC(C(=O)O)C4)cc3)s2)cc1` [Example 35, 1-(4-(5-(4-hexylphenyl)thiazol-2-yl)benzyl)azetidine-3-carboxylic acid]: the half-maximal effective concentration (EC50) – broadly, the concentration needed to bring the measured effect to its halfway point – in test [1] is at most 500 nM. Take `CC(C)Oc1ccc(-c2cnc(-c3ccc(CN4CC(C(=O)O)C4)cc3Cl)s2)cc1Cl` [Example 60, 1-(3-chloro-4-(5-(3-chloro-4-isopropoxyphenyl)thiazol-2-yl)benzyl)azetidine-3-carboxylic acid]: in test [2], the activation at 1 µM was below 20%. The figures for the EC50 in test [3] and in test [1] were at most 10 nM and at most 1 nM, respectively. The Emax at 1 µM in test [4] was 20 to 50%. `CC(C)(C)c1ccc(-c2cnc(-c3ccc(CN4CC(C(=O)O)C4)cc3)s2)cc1` [Example 33, 1-(4-(5-(4-tert-butylphenyl)thiazol-2-yl)benzyl)azetidine-3-carboxylic acid]: in test [1], the EC50 was at most 100 nM. Regarding `Cc1cc(-c2cnc(-c3ccc(CN4CC(C(=O)O)C4)cc3)s2)ccc1OC(C)C` [Example 52, 1-(4-(5-(4-isopropoxy-3-methylphenyl)thiazol-2-yl)benzyl)azetidine-3-carboxylic acid], the activation at 1 µM in test [2] is below 20%. The concentration giving a half-maximal response (EC50) in test [3] is at most 50 nM; in test [1], at most 1 nM. Besides, the Emax at 1 µM in test [4] lay within 20 to 50%. The matching figures for `CC(C)Oc1ccc(-c2cnc(-c3ccc(CN4CC(C(=O)O)C4)c(F)c3)s2)cc1Cl` [Example 57, 1-(4-(5-(3-chloro-4-isopropoxyphenyl)thiazol-2-yl)-2-fluorobenzyl)azetidine-3-carboxylic acid]: below 20%, at most 50 nM, at most 1 nM and below 20%. With `O=C(O)C1CN(Cc2ccc(-c3ncc(-c4ccc(OC5CCCC5)cc4)s3)cc2)C1` [Example 41, 1-(4-(5-(4-(cyclopentyloxy)phenyl)thiazol-2-yl)benzyl)azetidine-3-carboxylic acid], the 50% effective concentration (EC50) in test [1] was at most 100 nM. `CC(C)Oc1ccc(-c2cnc(-c3ccc(CN4CCC(C(=O)O)CC4)cc3)s2)cc1` [Example 5, 1-(4-(5-(4-isopropoxyphenyl)thiazol-2-yl)benzyl)piperidine-4-carboxylic acid] gave an EC50 in test [1] of at most 500 nM. As to `Cc1cc(-c2ncc(-c3ccc(OC(C)C)cc3)s2)ccc1CN1CC(C(=O)O)C1` [Example 25, 1-(4-(5-(4-isopropoxyphenyl)thiazol-2-yl)-2-methylbenzyl)azetidine-3-carboxylic acid], the half-maximal effective concentration (EC50) in test [1] is at most 10 nM. Still for that read-out and setting: the value for `CCc1cc(-c2ncc(-c3ccc(OC(C)C)cc3)s2)ccc1CN1CC(C(=O)O)C1` [Example 20, 1-(2-ethyl-4-(5-(4-isopropoxyphenyl)thiazol-2-yl)benzyl)azetidine-3-carboxylic acid] was at most 100 nM; that for `CC(C)Oc1cccc(-c2cnc(-c3ccc(CN4CC(C(=O)O)C4)cc3)s2)c1` [Example 7, 1-(4-(5-(3-isopropoxyphenyl)thiazol-2-yl)benzyl)azetidine-3-carboxylic acid] was ≤ 100 nM and 72.6 nM; that for `CC(C)Oc1ccc(-c2cnc(-c3ccc(CN4CC(c5nn[nH]n5)C4)cc3)s2)cc1` [Example 4, 2-(4-((3-(2H-tetrazol-5-yl)azetidin-1-yl)methyl)phenyl)-5-(4-isopropoxyphenyl)thiazole] was ≤ 100 nM and 87.1 nM. In the case of `CC(C)Oc1ccc(-c2cnc(-c3ccc(C(C)N4CC(C(=O)O)C4)cc3)s2)cc1` (centres unmarked) [Example 8, 1-(1-(4-(5-(4-isopropoxyphenyl)thiazol-2-yl)phenyl)ethyl)azetidine-3-carboxylic acid], in test [2], the activation at 1 µM is below 20%. Further, the EC50 in test [3] was at most 100 nM; in test [1] it was ≤ 10 nM and 6.58 nM. With `CCCCc1cc(CN2CC(C(=O)O)C2)ccc1-c1ncc(-c2ccc(OC(C)C)cc2)s1` [Example 13, 1-(3-butyl-4-(5-(4-isopropoxyphenyl)thiazol-2-yl)benzyl)azetidine-3-carboxylic acid], in test [1], the EC50 is at most 100 nM. In test [1], `CCCCOc1ccc(-c2cnc(-c3ccc(CN4CC(C(=O)O)C4)cc3)s2)cc1` [Example 39, 1-(4-(5-(4-butoxyphenyl)thiazol-2-yl)benzyl)azetidine-3-carboxylic acid] displayed an EC50 of at most 100 nM. Compound `CC(C)Oc1ccc(-c2cnc(-c3ccc(CN4CC(C(=O)O)C4)c(C4CC4)c3)s2)cc1` [Example 24, 1-(2-cyclopropyl-4-(5-(4-isopropoxyphenyl)thiazol-2-yl)benzyl)azetidine-3-carboxylic acid] registered an EC50 in test [1] of at most 100 nM. Same read-out and setting: the same measure for `COc1cc(-c2ncc(-c3ccc(OC(C)C)cc3)s2)ccc1CN1CC(C(=O)O)C1` [Example 26, 1-(4-(5-(4-isopropoxyphenyl)thiazol-2-yl)-2-methoxybenzyl)azetidine-3-carboxylic acid]: at most 100 nM; for `Cc1cc(OC(C)C)ccc1-c1cnc(-c2ccc(CN3CC(C(=O)O)C3)cc2)s1` [Example 54, 1-(4-(5-(4-isopropoxy-2-methylphenyl)thiazol-2-yl)benzyl)azetidine-3-carboxylic acid]: at most 100 nM. Take `CC(C)Oc1ccc(-c2cnc(-c3ccc(CN4CC(C(=O)O)C4)cc3F)s2)cc1` [Example 17, 1-(3-fluoro-4-(5-(4-isopropoxyphenyl)thiazol-2-yl)benzyl)azetidine-3-carboxylic acid]: the activation at 1 µM in test [2] was below 20%. For the same compound, the concentration giving a half-maximal response (EC50) in test [3] was at most 50 nM; in test [1], at most 10 nM. As to `O=C(O)C1CN(Cc2ccc(-c3ncc(-c4ccc(OC5CCCCC5)cc4)s3)cc2)C1` [Example 43, 1-(4-(5-(4-(cyclohexyloxy)phenyl)thiazol-2-yl)benzyl)azetidine-3-carboxylic acid], the 50% effective concentration (EC50) in test [1] was at most 100 nM. Still for that read-out and setting: the value for `CC(C)Oc1ccc(-c2cnc(-c3ccc(CN4CC(C(=O)O)C4)cc3C3CC3)s2)cc1` [Example 14, 1-(3-cyclopropyl-4-(5-(4-isopropoxyphenyl)thiazol-2-yl)benzyl)azetidine-3-carboxylic acid] was at most 10 nM. Turning to `CCc1cc(CN2CC(C(=O)O)C2)ccc1-c1ncc(-c2ccc(OC(C)C)cc2)s1` [Example 15, 1-(3-ethyl-4-(5-(4-isopropoxyphenyl)thiazol-2-yl)benzyl)azetidine-3-carboxylic acid], the activation at 1 µM in test [2] is below 20%. Further, in test [4], the Emax at 1 µM is below 20%. The compound further displayed an EC50 in test [1] of at most 10 nM.

With `O=C(O)C1CN(Cc2ccc(-c3ncc(-c4ccc(OC5CC5)cc4)s3)cc2)C1` [Example 16, 1-(4-(5-(4-cyclopropoxyphenyl)thiazol-2-yl)benzyl)azetidine-3-carboxylic acid], the EC50 in test [1] is at most 100 nM. The compound `CC(C)Oc1ccc(-c2cnc(-c3ccc(CN4CC(C(=O)O)C4)c(C(F)(F)F)c3)s2)cc1` [Example 27, 1-(4-(5-(4-isopropoxyphenyl)thiazol-2-yl)-2-(trifluoromethyl)benzyl)azetidine-3-carboxylic acid] showed an EC50 in test [1] of at most 100 nM.

`CCCCCc1ccc(-c2cnc(-c3ccc(CN4CC(C(=O)O)C4)cc3)s2)cc1` [Example 49, 1-(4-(5-(4-pentylphenyl)thiazol-2-yl)benzyl)azetidine-3-carboxylic acid] returned an EC50 in test [1] of at most 100 nM. In turn, `COc1cc(CN2CC(C(=O)O)C2)ccc1-c1ncc(-c2ccc(OC(C)C)cc2)s1` [Example 18, 1-(4-(5-(4-isopropoxyphenyl)thiazol-2-yl)-3-methoxybenzyl)azetidine-3-carboxylic acid] registered an EC50 in test [1] of at most 500 nM. For the compound `CCCCCOc1ccc(-c2cnc(-c3ccc(CN4CC(C(=O)O)C4)cc3)s2)cc1` [Example 40, 1-(4-(5-(4-pentyloxyphenyl)thiazol-2-yl)benzyl)azetidine-3-carboxylic acid], the 50% effective concentration (EC50) in test [1] was at most 500 nM.

For the origin of these results see patent US8895753B2, “S1P receptor modulating agent” (Meiji Seika Pharma Co., Ltd., priority 2011, dated 2014).
